Measurements published in ChEMBL document CHEMBL5042492, “Noncovalent CDK12/13 dual inhibitors-based PROTACs degrade CDK12-Cyclin K complex and induce synthetic lethality with PARP inhibitor” (Eur J Med Chem, 2022).
Activity calls are given as the source filed them. The rule behind the calls is not given here.

Columns and labels:
MDA-MB-231 [1] = experiment: Synergistic antiproliferative activity against human MDA-MB-231 cells in presence of 1 uM of Olaparib at 1 uM for 10 days by Chou-Talalay method; type: functional; conditions: time 10 day
MDA-MB-231 [2] = experiment: Synergistic antiproliferative activity against human MDA-MB-231 cells in presence of 3 uM of Olaparib at 1 uM measured after 10 days by Chou-Talalay method; type: functional; conditions: time 10 day
MDA-MB-231 [3] = experiment: Synergistic antiproliferative activity against human MDA-MB-231 cells in presence of 1 uM of Olaparib at 3 uM measured after 10 days by Chou-Talalay method; type: functional; conditions: time 10 day
MDA-MB-231 [4] = experiment: Synergistic antiproliferative activity against human MDA-MB-231 cells in presence of 3 uM of Olaparib at 3 uM measured after 10 days by Chou-Talalay method; type: functional; conditions: time 10 day
[5] = biological target: T1, Protein cereblon/Cyclin-dependent kinase 13 (Homo sapiens) (UniProt Q14004+Q96SW2); experiment: Protac activity at human CRBN/CDK13 in human Bel-7402 cells assessed as degradation of CDK13 at 0.1 to 30 uM measured after 24 hrs by Western blotting assay; type: cell-based; conditions: dose 0.1-30 µM
[6] = biological target: T1, Protein cereblon/Cyclin-dependent kinase 13 (Homo sapiens); experiment: Protac activity at human CRBN/CDK13 in human MDA-MB-231 cells assessed as degradation of CDK13 at 0.1 to 30 uM measured after 24 hrs by Western blotting assay; type: cell-based; conditions: dose 0.1-30 µM
[7] = biological target: T2, Protein cereblon/Cyclin-K/Cyclin-dependent kinase 12 (Homo sapiens, UniProt O75909+Q9NYV4+Q96SW2); experiment: Protac activity at human CRBN/CDK12/CycK in human Bel-7402 cells assessed as degradation of Cyclin H upto 30 uM measured after 24 hrs by Western blotting assay; type: cell-based; conditions: dose microM <=30, time 24.0 hrs
[8] = biological target: T2, Protein cereblon/Cyclin-K/Cyclin-dependent kinase 12; experiment: Protac activity at human CRBN/CDK12/CycK in human MDA-MB-231 cells assessed as degradation of Cyclin H up to 30 uM measured after 24 hrs by Western blotting assay; type: cell-based; conditions: dose microM <=30, time 24.0 hrs
[9] = biological target: T2, Protein cereblon/Cyclin-K/Cyclin-dependent kinase 12; experiment: Protac activity at human CRBN/CDK12/CycK in human Bel-7402 cells assessed as degradation of Cyclin T1 upto 30 uM measured after 24 hrs by Western blotting assay; type: cell-based; conditions: dose microM <=30, time 24.0 hrs
[10] = biological target: T2, Protein cereblon/Cyclin-K/Cyclin-dependent kinase 12; experiment: Protac activity at human CRBN/CDK12/CycK in human MDA-MB-231 cells assessed as degradation of Cyclin T1 up to 30 uM measured after 24 hrs by Western blotting assay; type: cell-based; conditions: dose microM <=30, time 24.0 hrs
[11] = biological target: T2, Protein cereblon/Cyclin-K/Cyclin-dependent kinase 12; experiment: Protac activity at human CRBN/CDK12/CycK in human Bel-7402 cells assessed as degradation of CK1alpha upto 30 uM measured after 24 hrs by Western blotting assay; type: cell-based; conditions: dose microM <=30, time 24.0 hrs
[12] = biological target: T2, Protein cereblon/Cyclin-K/Cyclin-dependent kinase 12; experiment: Protac activity at human CRBN/CDK12/CycK in human MDA-MB-231 cells assessed as degradation of CK1alpha up to 30 uM measured after 24 hrs by Western blotting assay; type: cell-based; conditions: dose microM <=30, time 24.0 hrs
[13] = biological target: T2, Protein cereblon/Cyclin-K/Cyclin-dependent kinase 12; experiment: Protac activity at human CRBN/CDK12/CycK in human Bel-7402 cells assessed as degradation of GSPT1 upto 30 uM measured after 24 hrs by Western blotting assay; type: cell-based; conditions: dose microM <=30, time 24.0 hrs
[14] = biological target: T2, Protein cereblon/Cyclin-K/Cyclin-dependent kinase 12; experiment: Protac activity at human CRBN/CDK12/CycK in human MDA-MB-231 cells assessed as degradation of GSPT1 up to 30 uM measured after 24 hrs by Western blotting assay; type: cell-based; conditions: dose microM <=30, time 24.0 hrs
[15] = biological target: T2, Protein cereblon/Cyclin-K/Cyclin-dependent kinase 12; experiment: Protac activity at human CRBN/CDK12/CycK in human MDA-MB-231 cells assessed as downregulation of Mcl-1 level upto 30 uM measured after 24 hrs by Western blotting assay; type: cell-based; conditions: dose microM <=30, time 24.0 hrs
[16] = biological target: T2, Protein cereblon/Cyclin-K/Cyclin-dependent kinase 12; experiment: Protac activity at human CRBN/CDK12/CycK in human Bel-7402 cells assessed as degradation of CDK12 at 1 to 3 uM for 24 hrs in presence of MG132 by Western blotting assay; type: cell-based; conditions: dose 1-3 µM
[17] = biological target: T2, Protein cereblon/Cyclin-K/Cyclin-dependent kinase 12; experiment: Protac activity at human CRBN/CDK12/CycK in human Bel-7402 cells assessed as degradation of CycK at 1 to 3 uM for 24 hrs in presence of MG132 by Western blotting assay; type: cell-based; conditions: dose 1-3 µM
[18] = biological target: T2, Protein cereblon/Cyclin-K/Cyclin-dependent kinase 12; experiment: Protac activity at human CRBN/CDK12/CycK in human MDA-MB-231 cells assessed as degradation of CDK12 at 1 to 3 uM for 24 hrs in presence of MG132 by Western blotting assay; type: cell-based; conditions: dose 1-3 µM
[19] = biological target: T2, Protein cereblon/Cyclin-K/Cyclin-dependent kinase 12; experiment: Protac activity at human CRBN/CDK12/CycK in human MDA-MB-231 cells assessed as degradation of CycK a 1 to 3 uM for 24 hrs in presence of MG132 by Western blotting assay; type: cell-based; conditions: dose 1-3 µM
[20] = biological target: T2, Protein cereblon/Cyclin-K/Cyclin-dependent kinase 12; experiment: Protac activity at human CRBN/CDK12/CycK in human Bel-7402 cells assessed as CDK12 mRNA expression measured after 6 hrs by RT-qPCR method; type: cell-based
[21] = biological target: T2, Protein cereblon/Cyclin-K/Cyclin-dependent kinase 12; experiment: Protac activity at human CRBN/CDK12/CycK in human MDA-MB-231 cells assessed as CDK12 mRNA expression measured after 6 hrs by RT-qPCR method; type: cell-based
[22] = biological target: T2, Protein cereblon/Cyclin-K/Cyclin-dependent kinase 12; experiment: Protac activity at human CRBN/CDK12/CycK in human Bel-7402 cells assessed as CycK mRNA expression measured after 6 hrs by RT-qPCR method; type: cell-based
[23] = biological target: T2, Protein cereblon/Cyclin-K/Cyclin-dependent kinase 12; experiment: Protac activity at human CRBN/CDK12/CycK in human MDA-MB-231 cells assessed as CycK mRNA expression measured after 6 hrs by RT-qPCR method; type: cell-based
MDA-MB-231 [24] = experiment: Antiproliferative activity against human MDA-MB-231 cells at 1 uM for 10 days by SRB staining based clone formation assay relative to control; type: functional; conditions: MDA-MB-231, 240 h, time 10 day
MDA-MB-231 [25] = experiment: Antiproliferative activity against human MDA-MB-231 cells at 3 uM for 10 days by SRB staining based clone formation assay relative to control; type: functional; conditions: MDA-MB-231, 240 h, time 10 day

T2 sequence (O75909 whole entry, looked up): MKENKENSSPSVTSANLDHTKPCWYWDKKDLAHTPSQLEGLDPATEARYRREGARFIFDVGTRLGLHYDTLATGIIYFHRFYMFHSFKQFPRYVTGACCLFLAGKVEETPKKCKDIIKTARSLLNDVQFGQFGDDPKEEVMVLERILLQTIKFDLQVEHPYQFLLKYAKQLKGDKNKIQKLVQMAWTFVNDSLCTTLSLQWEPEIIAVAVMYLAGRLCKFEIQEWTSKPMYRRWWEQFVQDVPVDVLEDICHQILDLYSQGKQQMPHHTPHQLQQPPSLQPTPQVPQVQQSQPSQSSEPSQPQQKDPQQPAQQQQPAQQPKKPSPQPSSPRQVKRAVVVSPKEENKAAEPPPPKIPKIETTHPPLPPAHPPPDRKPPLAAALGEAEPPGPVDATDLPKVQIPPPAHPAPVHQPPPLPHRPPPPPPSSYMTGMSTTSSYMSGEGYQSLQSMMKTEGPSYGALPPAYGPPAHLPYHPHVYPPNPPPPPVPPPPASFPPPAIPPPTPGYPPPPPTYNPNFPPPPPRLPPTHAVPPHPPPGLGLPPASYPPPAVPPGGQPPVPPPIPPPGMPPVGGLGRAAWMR
T2 sequence (Q96SW2 whole entry, looked up): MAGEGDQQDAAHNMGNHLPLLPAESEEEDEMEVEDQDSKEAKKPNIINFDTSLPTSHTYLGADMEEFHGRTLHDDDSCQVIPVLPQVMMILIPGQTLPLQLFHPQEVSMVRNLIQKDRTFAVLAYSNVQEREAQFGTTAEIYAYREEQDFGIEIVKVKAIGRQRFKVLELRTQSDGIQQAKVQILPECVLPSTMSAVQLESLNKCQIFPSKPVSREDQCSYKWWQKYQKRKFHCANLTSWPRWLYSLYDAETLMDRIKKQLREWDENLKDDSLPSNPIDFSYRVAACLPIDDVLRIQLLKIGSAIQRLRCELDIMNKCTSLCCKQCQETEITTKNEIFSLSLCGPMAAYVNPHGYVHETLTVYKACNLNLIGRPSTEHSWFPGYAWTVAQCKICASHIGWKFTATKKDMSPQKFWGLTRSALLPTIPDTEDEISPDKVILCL
T2 sequence (Q9NYV4 whole entry, looked up): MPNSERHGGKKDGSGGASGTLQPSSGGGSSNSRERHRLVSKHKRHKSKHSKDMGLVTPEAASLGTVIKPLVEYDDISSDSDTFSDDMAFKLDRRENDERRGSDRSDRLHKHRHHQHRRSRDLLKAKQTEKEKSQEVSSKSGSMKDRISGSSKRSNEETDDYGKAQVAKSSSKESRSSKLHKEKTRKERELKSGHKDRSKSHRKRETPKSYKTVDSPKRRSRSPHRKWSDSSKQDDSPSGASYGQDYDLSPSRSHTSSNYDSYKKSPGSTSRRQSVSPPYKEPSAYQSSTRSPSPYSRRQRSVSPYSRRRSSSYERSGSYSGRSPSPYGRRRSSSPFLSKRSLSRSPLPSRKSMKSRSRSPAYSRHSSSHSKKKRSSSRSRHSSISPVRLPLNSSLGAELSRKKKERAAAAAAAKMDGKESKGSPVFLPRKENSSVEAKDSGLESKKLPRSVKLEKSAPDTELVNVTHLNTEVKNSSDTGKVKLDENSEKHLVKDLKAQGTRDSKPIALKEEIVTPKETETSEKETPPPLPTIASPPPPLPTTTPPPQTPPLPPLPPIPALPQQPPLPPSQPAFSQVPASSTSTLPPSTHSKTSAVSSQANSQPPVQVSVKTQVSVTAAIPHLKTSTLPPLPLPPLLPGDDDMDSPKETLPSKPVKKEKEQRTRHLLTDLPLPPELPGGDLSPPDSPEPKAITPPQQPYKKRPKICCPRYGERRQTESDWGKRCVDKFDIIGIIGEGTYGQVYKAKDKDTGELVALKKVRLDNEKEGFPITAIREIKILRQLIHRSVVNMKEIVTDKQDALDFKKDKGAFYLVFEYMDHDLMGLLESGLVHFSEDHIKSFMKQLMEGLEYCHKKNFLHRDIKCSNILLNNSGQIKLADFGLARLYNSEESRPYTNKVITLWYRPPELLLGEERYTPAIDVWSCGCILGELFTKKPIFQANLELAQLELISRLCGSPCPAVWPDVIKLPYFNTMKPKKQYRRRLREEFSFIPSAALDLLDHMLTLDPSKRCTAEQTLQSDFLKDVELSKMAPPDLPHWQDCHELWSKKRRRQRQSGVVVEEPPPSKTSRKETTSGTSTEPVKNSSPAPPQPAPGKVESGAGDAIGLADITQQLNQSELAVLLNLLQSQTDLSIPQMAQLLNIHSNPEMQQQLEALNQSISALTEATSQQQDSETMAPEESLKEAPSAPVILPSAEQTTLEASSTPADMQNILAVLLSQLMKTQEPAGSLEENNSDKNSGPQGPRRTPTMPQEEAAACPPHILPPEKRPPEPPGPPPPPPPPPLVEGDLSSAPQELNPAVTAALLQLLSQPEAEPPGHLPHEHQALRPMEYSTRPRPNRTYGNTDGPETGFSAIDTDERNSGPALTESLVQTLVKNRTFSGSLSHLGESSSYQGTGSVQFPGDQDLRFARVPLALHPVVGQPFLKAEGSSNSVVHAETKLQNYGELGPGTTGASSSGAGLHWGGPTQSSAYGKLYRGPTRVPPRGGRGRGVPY
T1 sequence (Q14004 whole entry, looked up): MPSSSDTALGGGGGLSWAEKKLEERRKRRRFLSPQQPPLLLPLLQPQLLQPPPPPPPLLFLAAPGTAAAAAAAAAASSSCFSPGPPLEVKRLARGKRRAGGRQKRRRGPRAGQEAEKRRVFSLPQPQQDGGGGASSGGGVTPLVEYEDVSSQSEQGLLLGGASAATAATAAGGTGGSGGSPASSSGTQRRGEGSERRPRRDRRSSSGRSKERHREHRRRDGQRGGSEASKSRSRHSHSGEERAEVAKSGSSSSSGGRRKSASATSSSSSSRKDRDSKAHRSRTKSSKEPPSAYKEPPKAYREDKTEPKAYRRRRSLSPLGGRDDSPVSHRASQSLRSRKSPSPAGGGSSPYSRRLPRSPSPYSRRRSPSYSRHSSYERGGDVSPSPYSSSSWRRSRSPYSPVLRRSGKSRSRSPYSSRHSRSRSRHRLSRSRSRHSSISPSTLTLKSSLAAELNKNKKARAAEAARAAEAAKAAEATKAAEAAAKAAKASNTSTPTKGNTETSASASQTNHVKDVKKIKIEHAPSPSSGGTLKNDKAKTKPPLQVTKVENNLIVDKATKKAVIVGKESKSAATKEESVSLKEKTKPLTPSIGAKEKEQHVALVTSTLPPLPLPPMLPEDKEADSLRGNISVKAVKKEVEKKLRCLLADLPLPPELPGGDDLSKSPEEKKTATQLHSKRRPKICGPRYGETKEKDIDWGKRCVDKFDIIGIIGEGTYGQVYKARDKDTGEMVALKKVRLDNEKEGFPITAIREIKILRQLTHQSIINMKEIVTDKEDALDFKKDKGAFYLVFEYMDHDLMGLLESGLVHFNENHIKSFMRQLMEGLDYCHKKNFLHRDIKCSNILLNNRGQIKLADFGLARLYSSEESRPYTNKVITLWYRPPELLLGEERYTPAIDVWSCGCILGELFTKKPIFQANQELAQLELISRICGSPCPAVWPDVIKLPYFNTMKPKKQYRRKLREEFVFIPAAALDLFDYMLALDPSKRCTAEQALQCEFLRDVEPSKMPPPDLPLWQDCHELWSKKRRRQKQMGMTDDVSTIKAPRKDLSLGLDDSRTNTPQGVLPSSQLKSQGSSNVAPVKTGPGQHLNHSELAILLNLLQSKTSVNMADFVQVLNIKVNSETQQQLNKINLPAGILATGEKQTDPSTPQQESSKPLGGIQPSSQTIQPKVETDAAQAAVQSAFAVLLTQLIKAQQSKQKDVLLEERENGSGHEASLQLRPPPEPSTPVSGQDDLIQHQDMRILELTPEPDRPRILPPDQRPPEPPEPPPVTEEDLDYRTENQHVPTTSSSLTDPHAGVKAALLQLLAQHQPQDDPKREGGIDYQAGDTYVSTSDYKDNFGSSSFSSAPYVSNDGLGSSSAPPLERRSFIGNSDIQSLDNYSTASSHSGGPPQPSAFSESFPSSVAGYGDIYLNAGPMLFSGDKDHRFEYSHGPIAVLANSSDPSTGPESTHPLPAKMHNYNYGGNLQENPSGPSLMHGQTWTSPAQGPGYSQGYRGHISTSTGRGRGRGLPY
T1 sequence (Q96SW2 whole entry, looked up): as the sequence (Q96SW2 whole entry, looked up) above

Activity [5]: Active | Activity [6]: inactive | Activity [7]: inactive | Activity [8]: inactive | Activity [9]: inactive | Activity [10]: inactive | Activity [11]: inactive | Activity [12]: inactive | Activity [13]: inactive | Activity [14]: inactive | Activity [15]: inactive | Activity [16]: inactive | Activity [17]: inactive | Activity [18]: inactive | Activity [19]: inactive | Activity [20]: inactive | Activity [21]: inactive | Activity [22]: inactive | Activity [23]: inactive
Compound: CC(C)n1cnc2c(NCc3nc4cc(F)c(NCCCCCCCCNC(=O)COc5cccc6c5C(=O)N(C5CCC(=O)NC5=O)C6=O)cc4[nH]3)nc(N3CCOCC3)nc21 (stereo not given)
CI (MDA-MB-231 [1]): 0.65 | CI (MDA-MB-231 [2]): 0.75 | CI (MDA-MB-231 [3]): 0.29 | CI (MDA-MB-231 [4]): 0.62 | inhibition at 1 µM (MDA-MB-231 [24]): 1.05% | inhibition at 3 µM (MDA-MB-231 [25]): 6.47%
